The target of the experiment is ATR kinase (full-length ATR) (Homo sapiens (Human), UniProt Q13535). Kind of experiment: ATR inhibition assay (radioactive-phosphate incorporation). It is filed as biochemical. The method in brief: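 Radiometric 33P incorporation by 5 nM full-length ATR into 800 μM target peptide with 10 μM [γ-33P]ATP, in 50 mM Tris/HCl pH 7.5, 10 mM MgCl2, 1 mM DTT, 7% DMSO, 25° C. Compound pre-incubated 10 minutes; reaction stopped after 24 hours, captured on phosphocellulose. Ki(app) from non-linear regression of initial rates.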
Chain of ATR kinase (full-length ATR) (Q13535 whole entry): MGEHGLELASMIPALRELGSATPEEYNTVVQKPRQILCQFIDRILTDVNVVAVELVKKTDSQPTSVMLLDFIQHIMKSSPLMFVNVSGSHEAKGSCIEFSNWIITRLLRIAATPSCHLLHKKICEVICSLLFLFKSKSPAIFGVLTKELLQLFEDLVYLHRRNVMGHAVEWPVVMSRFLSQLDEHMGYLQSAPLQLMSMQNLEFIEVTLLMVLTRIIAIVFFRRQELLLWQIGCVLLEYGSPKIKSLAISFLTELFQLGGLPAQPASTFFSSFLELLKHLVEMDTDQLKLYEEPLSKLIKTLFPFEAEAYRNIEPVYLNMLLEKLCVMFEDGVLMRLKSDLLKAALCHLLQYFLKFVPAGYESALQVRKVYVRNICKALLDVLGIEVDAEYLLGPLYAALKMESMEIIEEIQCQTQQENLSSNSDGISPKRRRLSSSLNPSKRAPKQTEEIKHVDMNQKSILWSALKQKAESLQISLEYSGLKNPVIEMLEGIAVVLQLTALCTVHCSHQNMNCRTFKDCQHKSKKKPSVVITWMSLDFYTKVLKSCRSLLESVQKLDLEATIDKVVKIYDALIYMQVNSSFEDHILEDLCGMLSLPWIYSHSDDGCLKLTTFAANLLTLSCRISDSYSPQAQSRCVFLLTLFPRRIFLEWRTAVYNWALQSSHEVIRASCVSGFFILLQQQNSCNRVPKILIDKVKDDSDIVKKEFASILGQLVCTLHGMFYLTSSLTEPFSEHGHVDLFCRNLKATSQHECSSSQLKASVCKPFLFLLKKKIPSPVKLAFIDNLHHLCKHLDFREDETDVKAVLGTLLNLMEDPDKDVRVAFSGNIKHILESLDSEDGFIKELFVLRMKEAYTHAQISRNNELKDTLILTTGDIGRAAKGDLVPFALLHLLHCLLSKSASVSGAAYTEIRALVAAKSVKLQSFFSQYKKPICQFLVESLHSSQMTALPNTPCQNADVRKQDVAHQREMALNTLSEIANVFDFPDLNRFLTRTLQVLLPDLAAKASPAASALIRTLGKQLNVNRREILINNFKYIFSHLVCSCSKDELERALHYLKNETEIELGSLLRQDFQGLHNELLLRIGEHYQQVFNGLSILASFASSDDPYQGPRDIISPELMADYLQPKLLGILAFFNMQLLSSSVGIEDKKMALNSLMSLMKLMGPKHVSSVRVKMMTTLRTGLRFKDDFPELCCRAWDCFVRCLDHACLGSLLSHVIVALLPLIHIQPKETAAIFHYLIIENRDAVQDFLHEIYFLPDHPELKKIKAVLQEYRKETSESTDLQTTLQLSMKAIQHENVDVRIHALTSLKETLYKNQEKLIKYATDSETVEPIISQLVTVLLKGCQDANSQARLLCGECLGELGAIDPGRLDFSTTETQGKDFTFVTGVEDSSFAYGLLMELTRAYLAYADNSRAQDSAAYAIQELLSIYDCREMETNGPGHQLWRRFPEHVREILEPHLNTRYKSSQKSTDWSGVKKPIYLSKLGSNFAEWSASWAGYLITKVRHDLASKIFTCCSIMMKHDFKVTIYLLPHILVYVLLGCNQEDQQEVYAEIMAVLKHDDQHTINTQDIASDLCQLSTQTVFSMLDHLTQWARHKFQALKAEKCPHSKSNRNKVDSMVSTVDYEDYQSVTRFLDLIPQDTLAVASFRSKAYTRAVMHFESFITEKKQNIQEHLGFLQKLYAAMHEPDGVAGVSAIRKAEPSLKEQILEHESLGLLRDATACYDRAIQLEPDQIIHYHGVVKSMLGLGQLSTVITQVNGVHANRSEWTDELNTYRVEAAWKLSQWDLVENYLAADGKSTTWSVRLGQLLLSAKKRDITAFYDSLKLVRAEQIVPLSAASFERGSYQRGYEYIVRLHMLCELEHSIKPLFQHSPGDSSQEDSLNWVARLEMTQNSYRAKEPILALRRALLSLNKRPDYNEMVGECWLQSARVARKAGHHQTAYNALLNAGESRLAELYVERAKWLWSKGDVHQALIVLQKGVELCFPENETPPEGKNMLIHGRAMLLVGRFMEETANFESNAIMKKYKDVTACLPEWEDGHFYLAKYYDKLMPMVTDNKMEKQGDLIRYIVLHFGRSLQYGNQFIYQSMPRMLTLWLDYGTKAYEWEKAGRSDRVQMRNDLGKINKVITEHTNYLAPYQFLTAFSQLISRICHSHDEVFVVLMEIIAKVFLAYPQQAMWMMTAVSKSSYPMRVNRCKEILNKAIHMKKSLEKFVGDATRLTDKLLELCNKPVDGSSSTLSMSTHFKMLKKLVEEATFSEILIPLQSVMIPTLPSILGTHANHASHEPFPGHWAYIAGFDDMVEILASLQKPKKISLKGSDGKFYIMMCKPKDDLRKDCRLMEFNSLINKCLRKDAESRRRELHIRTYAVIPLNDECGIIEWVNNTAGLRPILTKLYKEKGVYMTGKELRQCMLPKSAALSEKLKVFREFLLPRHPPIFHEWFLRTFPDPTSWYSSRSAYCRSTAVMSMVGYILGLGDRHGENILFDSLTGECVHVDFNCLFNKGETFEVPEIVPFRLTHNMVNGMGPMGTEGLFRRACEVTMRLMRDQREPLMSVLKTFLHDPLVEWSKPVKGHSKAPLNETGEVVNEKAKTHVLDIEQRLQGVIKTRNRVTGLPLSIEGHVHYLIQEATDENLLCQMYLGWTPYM

Setting [1] is: Ki(app), 5 nM full-length ATR, 10 μM ATP, 25° C.

The values below come from patent US10392391B2 (Vertex Pharmaceuticals Incorporated, priority 2012, dated 2019).

The structures appear in SMILES notation. Like-named read-outs stand apart in the source and are kept apart here.

Consider `CN1CC2(CCC1=O)CCN(c1ccncc1NC(=O)c1c(N)nn3cc(F)cnc13)CC2` [I-N-231, 2-amino-6-fluoro-N-(4-(2-methyl-3-oxo-2,9-diazaspiro[5.5]undecan-9-yl)pyridin-3-yl)pyrazolo[1,5-a]pyrimidine-3-carboxamide], for which, under setting [1], the Ki was in the range of 10 to 1000 nM.

With `CC(C#N)c1cnc2c(C(=O)Nc3cnccc3N3CCN(C)CC3)c(N)nn2c1` (centres unmarked) [I-N-78, 2-amino-6-(1-cyanoethyl)-N-(4-(4-methylpiperazin-1-yl)pyridin-3-yl)pyrazolo[1,5-a]pyrimidine-3-carboxamide], the Ki under setting [1] lay in the range of 10 to 1000 nM.

Consider `Nc1nn2cc(Cl)cnc2c1C(=O)Nc1cnccc1N1CCC(N2CCCC2)CC1` [I-N-105, 2-amino-6-chloro-N-(4-(4-(pyrrolidin-1-yl)piperidin-1-yl)pyridin-3-yl)pyrazolo[1,5-a]pyrimidine-3-carboxamide], for which the Ki under setting [1] lay within 10 to 1000 nM.

As for `CC(C)(C)NC(=O)C1CCN(c2c(F)cncc2NC(=O)c2c(N)nn3cc(F)cnc23)CC1` [I-G-19, 2-amino-N-(4-(4-(tert-butylcarbamoyl)piperidin-1-yl)-5-fluoropyridin-3-yl)-6-fluoropyrazolo[1,5-a]pyrimidine-3-carboxamide], the Ki under setting [1] was in the range of 10 to 1000 nM.

For `Nc1nn2cc(F)cnc2c1C(=O)Nc1cnccc1N1CCC(S(=O)(=O)C2COC2)CC1` [I-N-200, 2-amino-6-fluoro-N-(4-(4-(oxetan-3-ylsulfonyl)piperidin-1-yl)pyridin-3-yl)pyrazolo[1,5-a]pyrimidine-3-carboxamide], the Ki under setting [1] lay in the range of 10 to 1000 nM.

In the case of `CN(C)CCOc1cc(C(F)(F)F)ncc1NC(=O)c1c(N)nn2cc(Cl)cnc12` [I-O-71, 2-amino-6-chloro-N-(4-(2-(dimethylamino)ethoxy)-6-(trifluoromethyl)pyridin-3-yl)pyrazolo[1,5-a]pyrimidine-3-carboxamide], the Ki under setting [1] fell in the range of 10 to 1000 nM.

With `CN(C)CCN1CCN(c2ccncc2NC(=O)c2c(N)nn3cc(Cl)cnc23)CC1` [I-N-49, 2-amino-6-chloro-N-(4-(4-(2-(dimethylamino)ethyl)piperazin-1-yl)pyridin-3-yl)pyrazolo[1,5-a]pyrimidine-3-carboxamide], under setting [1], the Ki was in the range of 10 to 1000 nM.

For `CN1CCN(c2c(F)cncc2NC(=O)c2c(N)nn3cc(F)cnc23)CC1=O` [I-N-212, 2-amino-6-fluoro-N-(5-fluoro-4-(4-methyl-3-oxopiperazin-1-yl)pyridin-3-yl)pyrazolo[1,5-a]pyrimidine-3-carboxamide], the Ki under setting [1] lay in the range of 10 to 1000 nM.

Regarding `COc1ccc(-c2ccncc2NC(=O)c2c(N)nn3cc(F)cnc23)cn1` [I-C-27, 2-amino-6-fluoro-N-(6-methoxy-[3,4′-bipyridin]-3′-yl)pyrazolo[1,5-a]pyrimidine-3-carboxamide], the Ki under setting [1] was 10 to 1000 nM.

For `Cc1ccnn1-c1ccncc1NC(=O)c1c(N)nn2cc(F)cnc12` [I-N-223, 2-amino-6-fluoro-N-(4-(5-methyl-1H-pyrazol-1-yl)pyridin-3-yl)pyrazolo[1,5-a]pyrimidine-3-carboxamide], the Ki under setting [1] lay within 10 to 1000 nM.

As for `Cc1nc(O[C@@H]2CCN(C)C2)ccc1-c1ccncc1NC(=O)c1c(N)nn2cc(F)cnc12` [I-C-41, (R)-2-amino-6-fluoro-N-(2-methyl-6-((1-methylpyrrolidin-3-yl)oxy)-[3,4′-bipyridin]-3′-yl)pyrazolo[1,5-a]pyrimidine-3-carboxamide], the Ki under setting [1] fell in the range of 10 to 1000 nM.

Take `Nc1nn2cc(F)cnc2c1C(=O)Nc1cncc(F)c1N1CCC(C(=O)N2CCN3CC[C@@H]2C3)CC1` [I-G-71, N-(4-(4-((5R)-1,4-diazabicyclo[3.2.1]octane-4-carbonyl)piperidin-1-yl)-5-fluoropyridin-3-yl)-2-amino-6-fluoropyrazolo[1,5-a]pyrimidine-3-carboxamide]: the Ki under setting [1] fell in the range of 10 to 1000 nM.

Consider `Nc1nn2cc(F)cnc2c1C(=O)Nc1cncc(F)c1N1CCC(C(=O)N2CCNC3CC32)CC1` (centres unmarked) [I-G-62, N-(4-(4-(2,5-diazabicyclo[4.1.0]heptane-2-carbonyl)piperidin-1-yl)-5-fluoropyridin-3-yl)-2-amino-6-fluoropyrazolo[1,5-a]pyrimidine-3-carboxamide], for which, under setting [1], the Ki lay in the range of 10 to 1000 nM.

With `Nc1nn2cc(F)cnc2c1C(=O)Nc1cnccc1N1CCN2[C@@H](CCS2(=O)=O)C1` [I-N-247, (S)-2-amino-N-(4-(1,1-dioxidotetrahydro-2H-isothiazolo[2,3-a]pyrazin-5(3H)-yl)pyridin-3-yl)-6-fluoropyrazolo[1,5-a]pyrimidine-3-carboxamide], under setting [1], the Ki fell in the range of 10 to 1000 nM.

Turning to `Nc1nn2cc(Cl)cnc2c1C(=O)Nc1cnccc1O[C@H]1CCOC1` [I-O-58, (S)-2-amino-6-chloro-N-(4-((tetrahydrofuran-3-yl)oxy)pyridin-3-yl)pyrazolo[1,5-a]pyrimidine-3-carboxamide], the Ki under setting [1] is 10 to 1000 nM.

On to `Nc1nn2cc(F)cnc2c1C(=O)Nc1cncc(F)c1N1CCN(C(=O)C2CCOC2)CC1` (centres unmarked) [I-N-274, 2-amino-6-fluoro-N-(5-fluoro-4-(4-(tetrahydrofuran-3-carbonyl)piperazin-1-yl)pyridin-3-yl)pyrazolo[1,5-a]pyrimidine-3-carboxamide], for which the Ki under setting [1] is 10 to 1000 nM.

As for `Nc1nn2cc(F)cnc2c1C(=O)Nc1cnccc1-c1ccc(C(=O)N2CCN(C3COC3)CC2)nc1` [I-C-52, 2-amino-6-fluoro-N-(6-(4-(oxetan-3-yl)piperazine-1-carbonyl)-[3,4′-bipyridin]-3′-yl)pyrazolo[1,5-a]pyrimidine-3-carboxamide], the Ki under setting [1] lay within 10 to 1000 nM.

For the molecule `Nc1nn2cc(F)cnc2c1C(=O)Nc1cnccc1-c1ccccc1` [I-C-5, 2-amino-6-fluoro-N-(4-phenylpyridin-3-yl)pyrazolo[1,5-a]pyrimidine-3-carboxamide], under setting [1], the Ki is 10 to 1000 nM.

As for `CC(=O)N1CC2(CCN(c3ccncc3NC(=O)c3c(N)nn4cc(F)cnc34)CC2)C1` [I-N-251, N-(4-(2-acetyl-2,7-diazaspiro[3.5]nonan-7-yl)pyridin-3-yl)-2-amino-6-fluoropyrazolo[1,5-a]pyrimidine-3-carboxamide], under setting [1], the Ki was 10 to 1000 nM.

In the case of `CN1CCC[C@H]1COc1ccncc1NC(=O)c1c(N)nn2cc(Cl)cnc12` [I-O-50, (S)-2-amino-6-chloro-N-(4-((1-methylpyrrolidin-2-yl)methoxy)pyridin-3-yl)pyrazolo[1,5-a]pyrimidine-3-carboxamide], under setting [1], the Ki was 10 to 1000 nM.

Turning to `CN1CCN(c2c(F)cncc2NC(=O)c2c(N)nn3cc(C(C)(C)C#N)cnc23)CC1` [I-N-138, 2-amino-6-(2-cyanopropan-2-yl)-N-(5-fluoro-4-(4-methylpiperazin-1-yl)pyridin-3-yl)pyrazolo[1,5-a]pyrimidine-3-carboxamide], the Ki fell in the range of 1000 to 5000 nM.

As to `Cn1ncnc1-c1ccncc1NC(=O)c1c(N)nn2cc(F)cnc12` [I-C-65, 2-amino-6-fluoro-N-(4-(1-methyl-1H-1,2,4-triazol-5-yl)pyridin-3-yl)pyrazolo[1,5-a]pyrimidine-3-carboxamide], under setting [1], the Ki was 10 to 1000 nM.

Consider `Cc1cncc(NC(=O)c2c(N)nn3cc(F)cnc23)c1-n1nccc1C` [I-N-237], for which, under setting [1], the Ki lay in the range of 10 to 1000 nM.

For `Nc1nn2cc(F)cnc2c1C(=O)Nc1cncc(F)c1N1CCC(OCCN2CCCC2)CC1` [I-N-167, 2-amino-6-fluoro-N-(5-fluoro-4-(4-(2-(pyrrolidin-1-yl)ethoxy)piperidin-1-yl)pyridin-3-yl)pyrazolo[1,5-a]pyrimidine-3-carboxamide], the Ki under setting [1] lay in the range of 10 to 1000 nM.

Turning to `Cc1cnccc1-c1ccncc1NC(=O)c1c(N)nn2cc(F)cnc12` [I-C-29, 2-amino-6-fluoro-N-(3′-methyl-[4,4′-bipyridin]-3-yl)pyrazolo[1,5-a]pyrimidine-3-carboxamide], under setting [1], the Ki was in the range of 10 to 1000 nM.

In the case of `Nc1nn2cc(F)cnc2c1C(=O)Nc1cnccc1N1CCC(C(=O)N2CC3(COC3)C2)CC1` [I-G-88, N-(4-(4-(2-oxa-6-azaspiro[3.3]heptane-6-carbonyl)piperidin-1-yl)pyridin-3-yl)-2-amino-6-fluoropyrazolo[1,5-a]pyrimidine-3-carboxamide], the Ki under setting [1] lay in the range of 10 to 1000 nM.

Take `C[C@@H]1CN(C2COC2)CCN1c1ccncc1NC(=O)c1c(N)nn2cc(F)cnc12` [I-N-23, (R)-2-amino-6-fluoro-N-(4-(2-methyl-4-(oxetan-3-yl)piperazin-1-yl)pyridin-3-yl)pyrazolo[1,5-a]pyrimidine-3-carboxamide]: the Ki under setting [1] lay within 10 to 1000 nM.

On to `CN1CCC(S(=O)(=O)N2CCN(c3ccncc3NC(=O)c3c(N)nn4cc(F)cnc34)CC2)CC1` [I-N-188, 2-amino-6-fluoro-N-(4-(4-((1-methylpiperidin-4-yl)sulfonyl)piperazin-1-yl)pyridin-3-yl)pyrazolo[1,5-a]pyrimidine-3-carboxamide], for which the Ki under setting [1] fell in the range of 10 to 1000 nM.

Take `CN1CCN(C(=O)C2CCN(c3ccncc3NC(=O)c3c(N)nn4cc(F)cnc34)CC2)CC1` [I-G-1, 2-amino-6-fluoro-N-(4-(4-(4-methylpiperazine-1-carbonyl)piperidin-1-yl)pyridin-3-yl)pyrazolo[1,5-a]pyrimidine-3-carboxamide]: under setting [1], the Ki is 10 to 1000 nM.

As to `CN(C)C(=O)[C@H]1CC[C@@H](Oc2ccncc2NC(=O)c2c(N)nn3cc(F)cnc23)CC1` [I-O-17, 2-amino-N-(4-(((1s,4s)-4-(dimethylcarbamoyl)cyclohexyl)oxy)pyridin-3-yl)-6-fluoropyrazolo[1,5-a]pyrimidine-3-carboxamide], the Ki under setting [1] was in the range of 10 to 1000 nM.

`Nc1nn2cc(F)cnc2c1C(=O)Nc1cncc(F)c1N1CCN(C2CCOCC2)CC1` [I-N-121, 2-amino-6-fluoro-N-(5-fluoro-4-(4-(tetrahydro-2H-pyran-4-yl)piperazin-1-yl)pyridin-3-yl)pyrazolo[1,5-a]pyrimidine-3-carboxamide]: under setting [1], the Ki was in the range of 10 to 1000 nM.

For `CN1CCC(C(=O)N2CCN(c3c(F)cncc3NC(=O)c3c(N)nn4cc(F)cnc34)CC2)C1` (centres unmarked) [I-N-156, 2-amino-6-fluoro-N-(5-fluoro-4-(4-(1-methylpyrrolidine-3-carbonyl)piperazin-1-yl)pyridin-3-yl)pyrazolo[1,5-a]pyrimidine-3-carboxamide], the Ki under setting [1] is 10 to 1000 nM.
